# According to PubChem BioAssay (NCI):
#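 Exposure lasted 48 hours, with cells grown in 96-well plates and compounds tested at five concentrations. TGI marks complete inhibition of growth.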
# What was measured:
# Test in all cases: inhibition of tumour cell growth, NCI panel, 48 h
# K-562 leukemia = tested on: K-562 leukemia
# RPMI-8226 leukemia = tested on: RPMI-8226 leukemia
# MCF7 breast = tested on: MCF7 breast
# TK-10 renal = tested on: TK-10 renal
# NCI-H522 lung = tested on: NCI-H522 lung
# CCRF-CEM leukemia = tested on: CCRF-CEM leukemia
# HS 578T breast = tested on: HS 578T breast
# SK-OV-3 ovarian = tested on: SK-OV-3 ovarian
# MDA-MB-435 = tested on: MDA-MB-435
# A549 NSCLC = tested on: A549 NSCLC
# SK-MEL-2 melanoma = tested on: SK-MEL-2 melanoma
# COLO 205 colon = tested on: COLO 205 colon
# U251 CNS = tested on: U251 CNS
# IGROV1 ovarian = tested on: IGROV1 ovarian
# SK-MEL-5 melanoma = tested on: SK-MEL-5 melanoma
# HT29 colon = tested on: HT29 colon
# HL-60(TB) leukemia = tested on: HL-60(TB) leukemia
# DU-145 prostate = tested on: DU-145 prostate
# SNB-19 CNS = tested on: SNB-19 CNS
# SF-295 CNS = tested on: SF-295 CNS
# MDA-MB-231 breast = tested on: MDA-MB-231 breast
# MDA-N = tested on: MDA-N
# MOLT-4 leukemia = tested on: MOLT-4 leukemia
# SN12C renal = tested on: SN12C renal
# NCI-H460 lung = tested on: NCI-H460 lung
# SNB-75 CNS = tested on: SNB-75 CNS
# ACHN renal = tested on: ACHN renal
# SR leukemia = tested on: SR leukemia
# A498 renal = tested on: A498 renal
# NCI/ADR-RES ovarian = tested on: NCI/ADR-RES ovarian
# EKVX NSCLC = tested on: EKVX NSCLC
# OVCAR-5 ovarian = tested on: OVCAR-5 ovarian
# HCT-116 colon = tested on: HCT-116 colon
# 786-0 renal = tested on: 786-0 renal
# OVCAR-8 ovarian = tested on: OVCAR-8 ovarian
# UACC-257 melanoma = tested on: UACC-257 melanoma
# HCT-15 colon = tested on: HCT-15 colon
# SK-MEL-28 melanoma = tested on: SK-MEL-28 melanoma
# T-47D breast = tested on: T-47D breast
# NCI-H23 lung = tested on: NCI-H23 lung
# NCI-H226 lung = tested on: NCI-H226 lung
# LOX IMVI melanoma = tested on: LOX IMVI melanoma
# KM12 colon = tested on: KM12 colon
# SW-620 colon = tested on: SW-620 colon
# HOP-62 NSCLC = tested on: HOP-62 NSCLC
# HCC-2998 colon = tested on: HCC-2998 colon
# PC-3 prostate = tested on: PC-3 prostate
# SF-268 CNS = tested on: SF-268 CNS
# SF-539 CNS = tested on: SF-539 CNS
# M14 melanoma = tested on: M14 melanoma
# OVCAR-4 ovarian = tested on: OVCAR-4 ovarian
# HOP-92 NSCLC = tested on: HOP-92 NSCLC
# OVCAR-3 ovarian = tested on: OVCAR-3 ovarian
# UO-31 renal = tested on: UO-31 renal
# UACC-62 melanoma = tested on: UACC-62 melanoma
# MALME-3M melanoma = tested on: MALME-3M melanoma
# CAKI-1 renal = tested on: CAKI-1 renal
# RXF 393 renal = tested on: RXF 393 renal
smiles,measurement,setting,value
COc1ccc(C2(O)C(S(=O)(=O)c3ccc(C)cc3)=Cc3ccc(OC)cc32)cc1 (stereo not drawn),TGI,K-562 leukemia,> 100 µM
same,TGI,RPMI-8226 leukemia,> 100 µM
same,TGI,MCF7 breast,> 100 µM
same,TGI,TK-10 renal,> 100 µM
same,TGI,NCI-H522 lung,> 100 µM
same,TGI,CCRF-CEM leukemia,> 100 µM
same,TGI,HS 578T breast,> 100 µM
same,TGI,SK-OV-3 ovarian,> 100 µM
same,TGI,MDA-MB-435,> 100 µM
same,TGI,A549 NSCLC,> 100 µM
same,TGI,SK-MEL-2 melanoma,> 100 µM
same,TGI,COLO 205 colon,> 100 µM
same,TGI,U251 CNS,> 100 µM
same,TGI,IGROV1 ovarian,> 100 µM
same,TGI,SK-MEL-5 melanoma,> 100 µM
same,TGI,HT29 colon,> 100 µM
same,TGI,HL-60(TB) leukemia,> 100 µM
same,TGI,DU-145 prostate,> 100 µM
same,TGI,SNB-19 CNS,> 100 µM
same,TGI,SF-295 CNS,97.4 µM
same,TGI,MDA-MB-231 breast,> 100 µM
same,TGI,MDA-N,> 100 µM
same,TGI,MOLT-4 leukemia,> 100 µM
same,TGI,SN12C renal,> 100 µM
same,TGI,NCI-H460 lung,> 100 µM
same,TGI,SNB-75 CNS,60.1 µM
same,TGI,ACHN renal,> 100 µM
same,TGI,SR leukemia,> 100 µM
same,TGI,A498 renal,> 100 µM
same,TGI,NCI/ADR-RES ovarian,> 100 µM
same,TGI,EKVX NSCLC,> 100 µM
same,TGI,OVCAR-5 ovarian,> 100 µM
same,TGI,HCT-116 colon,> 100 µM
same,TGI,786-0 renal,> 100 µM
same,TGI,OVCAR-8 ovarian,> 100 µM
same,TGI,UACC-257 melanoma,> 100 µM
same,TGI,HCT-15 colon,> 100 µM
same,TGI,SK-MEL-28 melanoma,> 100 µM
same,TGI,T-47D breast,> 100 µM
same,TGI,NCI-H23 lung,> 100 µM
same,TGI,NCI-H226 lung,> 100 µM
same,TGI,LOX IMVI melanoma,> 100 µM
same,TGI,KM12 colon,> 100 µM
same,TGI,SW-620 colon,> 100 µM
same,TGI,HOP-62 NSCLC,77.2 µM
same,TGI,HCC-2998 colon,> 100 µM
same,TGI,PC-3 prostate,> 100 µM
same,TGI,SF-268 CNS,> 100 µM
same,TGI,SF-539 CNS,> 100 µM
CCN(CC)CCOCCn1c2c(c3ccccc31)CCCC2,TGI,K-562 leukemia,30.2 µM
same,TGI,RPMI-8226 leukemia,51.1 µM
same,TGI,MCF7 breast,35.2 µM
same,TGI,TK-10 renal,38.5 µM
same,TGI,CCRF-CEM leukemia,50.9 µM
same,TGI,HS 578T breast,56.5 µM
same,TGI,SK-OV-3 ovarian,86.3 µM
same,TGI,MDA-MB-435,32.7 µM
same,TGI,A549 NSCLC,72.2 µM
same,TGI,SK-MEL-2 melanoma,29.6 µM
same,TGI,M14 melanoma,31.3 µM
same,TGI,COLO 205 colon,39.1 µM
same,TGI,U251 CNS,49.3 µM
same,TGI,OVCAR-4 ovarian,> 100 µM
same,TGI,HOP-92 NSCLC,68.9 µM
same,TGI,IGROV1 ovarian,60 µM
same,TGI,SK-MEL-5 melanoma,26.3 µM
same,TGI,HT29 colon,90.2 µM
same,TGI,HL-60(TB) leukemia,24.6 µM
same,TGI,DU-145 prostate,91.1 µM
same,TGI,SF-295 CNS,> 100 µM
same,TGI,MDA-MB-231 breast,35.1 µM
same,TGI,MDA-N,31.1 µM
same,TGI,MOLT-4 leukemia,35.5 µM
same,TGI,SN12C renal,35.5 µM
same,TGI,NCI-H460 lung,39.1 µM
same,TGI,SNB-75 CNS,> 100 µM
same,TGI,ACHN renal,41.9 µM
same,TGI,SR leukemia,35.5 µM
same,TGI,NCI/ADR-RES ovarian,33.3 µM
same,TGI,EKVX NSCLC,> 100 µM
same,TGI,OVCAR-5 ovarian,41.3 µM
same,TGI,HCT-116 colon,29.4 µM
same,TGI,786-0 renal,30 µM
same,TGI,OVCAR-8 ovarian,> 100 µM
same,TGI,UACC-257 melanoma,48.7 µM
same,TGI,HCT-15 colon,34.5 µM
same,TGI,OVCAR-3 ovarian,> 100 µM
same,TGI,SK-MEL-28 melanoma,40 µM
same,TGI,T-47D breast,52.9 µM
same,TGI,NCI-H23 lung,> 100 µM
same,TGI,NCI-H226 lung,55.2 µM
same,TGI,LOX IMVI melanoma,37.3 µM
same,TGI,UO-31 renal,36.8 µM
same,TGI,KM12 colon,> 100 µM
same,TGI,SW-620 colon,36.8 µM
same,TGI,UACC-62 melanoma,32.4 µM
same,TGI,HOP-62 NSCLC,31.5 µM
same,TGI,HCC-2998 colon,31 µM
same,TGI,PC-3 prostate,59.5 µM
same,TGI,SF-268 CNS,> 100 µM
same,TGI,SF-539 CNS,32 µM
same,TGI,MALME-3M melanoma,29.3 µM
CC(C)(C)C(=O)C(C(=O)c1ccccc1)C(=O)C(C)(C)C,TGI,K-562 leukemia,> 100 µM
same,TGI,RPMI-8226 leukemia,> 100 µM
same,TGI,MCF7 breast,> 100 µM
same,TGI,TK-10 renal,> 100 µM
same,TGI,NCI-H522 lung,> 100 µM
same,TGI,CCRF-CEM leukemia,> 100 µM
same,TGI,HS 578T breast,> 100 µM
same,TGI,SK-OV-3 ovarian,> 100 µM
same,TGI,MDA-MB-435,> 100 µM
same,TGI,A549 NSCLC,> 100 µM
same,TGI,SK-MEL-2 melanoma,> 100 µM
same,TGI,M14 melanoma,> 100 µM
same,TGI,COLO 205 colon,> 100 µM
same,TGI,U251 CNS,> 100 µM
same,TGI,OVCAR-4 ovarian,> 100 µM
same,TGI,HOP-92 NSCLC,> 100 µM
same,TGI,IGROV1 ovarian,> 100 µM
same,TGI,SK-MEL-5 melanoma,> 100 µM
same,TGI,HT29 colon,> 100 µM
same,TGI,HL-60(TB) leukemia,> 100 µM
same,TGI,DU-145 prostate,> 100 µM
same,TGI,SNB-19 CNS,> 100 µM
same,TGI,SF-295 CNS,> 100 µM
same,TGI,MDA-MB-231 breast,> 100 µM
same,TGI,MDA-N,> 100 µM
same,TGI,MOLT-4 leukemia,> 100 µM
same,TGI,SN12C renal,> 100 µM
same,TGI,NCI-H460 lung,> 100 µM
same,TGI,SNB-75 CNS,> 100 µM
same,TGI,ACHN renal,> 100 µM
same,TGI,A498 renal,> 100 µM
same,TGI,NCI/ADR-RES ovarian,> 100 µM
same,TGI,EKVX NSCLC,> 100 µM
same,TGI,CAKI-1 renal,> 100 µM
same,TGI,OVCAR-5 ovarian,> 100 µM
same,TGI,HCT-116 colon,> 100 µM
same,TGI,786-0 renal,> 100 µM
same,TGI,OVCAR-8 ovarian,> 100 µM
same,TGI,UACC-257 melanoma,> 100 µM
same,TGI,HCT-15 colon,> 100 µM
same,TGI,OVCAR-3 ovarian,> 100 µM
same,TGI,SK-MEL-28 melanoma,> 100 µM
same,TGI,T-47D breast,> 100 µM
same,TGI,NCI-H23 lung,> 100 µM
same,TGI,NCI-H226 lung,> 100 µM
same,TGI,LOX IMVI melanoma,> 100 µM
same,TGI,UO-31 renal,> 100 µM
same,TGI,KM12 colon,> 100 µM
same,TGI,SW-620 colon,> 100 µM
same,TGI,RXF 393 renal,> 100 µM
same,TGI,HOP-62 NSCLC,> 100 µM
same,TGI,HCC-2998 colon,> 100 µM
same,TGI,PC-3 prostate,> 100 µM
same,TGI,SF-268 CNS,> 100 µM
same,TGI,SF-539 CNS,> 100 µM
same,TGI,MALME-3M melanoma,> 100 µM
